ChEMBL document CHEMBL5352388 (Eur J Med Chem, 2022)
Active and inactive are the calls of the source. No cut-off for these calls is given here.

Columns and labels:
HeLa = test: Antiproliferative activity against human HeLa cells assessed as inhibition of cell growth incubated for 72 hrs by CCK-8 assay; assay type: functional, cell-based
[1] = Half life in human liver microsomes measured upto 60 mins in presence of NADPH by LC/MS/MS analysis; assay type: ADME, Microsome
[2] = Intrinsic clearance in human liver microsomes measured upto 60 mins in presence of NADPH by LC/MS/MS analysis; assay type: ADME, Microsome; conditions: read-out: CLH
[3] = Intrinsic clearance in human liver measured upto 60 mins in presence of NADPH by LC/MS/MS analysis; assay type: ADME, tissue-based; conditions: read-out: CLH
[4] = Metabolic stability in human liver microsomes assessed as compound remaining measured upto 60 mins in presence of NADPH by LC/MS/MS analysis; assay type: ADME, Microsome; conditions: read-out: Stability
[5] = Metabolic stability in human liver microsomes assessed as compound remaining measured upto 60 mins by LC/MS/MS analysis; assay type: ADME, Microsome; conditions: read-out: Stability
CYP1A2 = target: T1, CYP1A2 (Homo sapiens, UniProt P05177); test: Inhibition of CYP1A2 (unknown origin) at 10 uM incubated for 20 mins in presence of NADPH by LC/MS/MS analysis relative to control; assay type: ADME
T1 sequence (P05177 whole entry): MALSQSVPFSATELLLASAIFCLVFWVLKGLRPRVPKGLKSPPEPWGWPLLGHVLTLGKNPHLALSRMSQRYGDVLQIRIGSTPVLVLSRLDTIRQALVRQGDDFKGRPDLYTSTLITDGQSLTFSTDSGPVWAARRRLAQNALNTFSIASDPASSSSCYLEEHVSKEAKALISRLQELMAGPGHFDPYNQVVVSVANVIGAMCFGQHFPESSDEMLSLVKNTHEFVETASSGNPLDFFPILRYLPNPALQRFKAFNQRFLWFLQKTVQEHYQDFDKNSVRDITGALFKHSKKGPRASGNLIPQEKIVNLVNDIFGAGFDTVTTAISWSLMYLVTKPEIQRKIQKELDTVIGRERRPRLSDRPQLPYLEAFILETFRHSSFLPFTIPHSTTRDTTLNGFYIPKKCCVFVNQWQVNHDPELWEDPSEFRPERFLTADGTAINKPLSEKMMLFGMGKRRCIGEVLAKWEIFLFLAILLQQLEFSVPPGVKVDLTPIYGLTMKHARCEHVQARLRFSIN

CYP3A4 = CYP3A4 (Homo sapiens, UniProt P08684); test: Inhibition of CYP3A4 (unknown origin) at 10 uM incubated for 20 mins in presence of NADPH by LC/MS/MS analysis relative to control; assay type: ADME
[6] = Tmax in Sprague-Dawley rat at 10 mg/kg,po by LC-MS/MS analysis; assay type: ADME, organism-based; conditions: in vivo
[7] = Cmax in Sprague-Dawley rat at 10 mg/kg,po by LC-MS/MS analysis; assay type: ADME, organism-based; parameters: dose 10 mg/kg, route po; conditions: in vivo
[8] = Half life in Sprague-Dawley rat at 10 mg/kg,po by LC-MS/MS analysis; assay type: ADME, organism-based; conditions: in vivo
[9] = AUC (0-infinity) in Sprague-Dawley rat at 10 mg/kg,po by LC-MS/MS analysis; assay type: ADME, organism-based; parameters: dose 10 mg/kg, route po; conditions: in vivo
[10] = Half life in Sprague-Dawley rat at 3 mg/kg,iv by LC-MS/MS analysis; assay type: ADME, organism-based; conditions: in vivo
[11] = target: T2, Lysine-specific histone demethylase 1A (Homo sapiens, UniProt O60341); test: Reversible inhibition of LSD-1 (unknown origin) by jump dilution assay
[12] = target: T2, Lysine-specific histone demethylase 1A; test: Inhibition of LSD1 in human A549 cells assessed as increase in H3K4me1 protein level at 1 to 4 uM incubated for 72 hrs by Western blotting assay; assay type: cell-based; conditions: dose 1-4 µM
[13] = target: T2, Lysine-specific histone demethylase 1A; test: Inhibition of LSD1 in human A549 cells assessed as increase in H3K9me1 protein level at 1 to 4 uM incubated for 72 hrs by Western blotting assay; assay type: cell-based; conditions: dose 1-4 µM
[14] = target: T2, Lysine-specific histone demethylase 1A; test: Inhibition of LSD1 in human A549 cells assessed as increase in H3K9me2 protein level at 1 to 4 uM incubated for 72 hrs by Western blotting assay; assay type: cell-based; conditions: dose 1-4 µM
A549 [15] = test: Induction of apoptosis in human A549 cells assessed as upregulation of Bax at 1 to 4 uM incubated for 72 hrs by Western blotting assay; assay type: functional, cell-based; conditions: dose 1-4 µM
A549 [16] = test: Antitumor activity against human A549 cells xenografted in BALB/c mouse assessed as reduction in tumor growth at 10 mg/kg,ip administrated for 15 days; assay type: functional, organism-based; conditions: time 15.0 day
A549 [17] = test: Antitumor activity against human A549 cells xenografted in BALB/c mouse assessed as reduction in tumor growth at 20 mg/kg,ip administrated for 15 days; assay type: functional, organism-based; conditions: time 15.0 day
[18] = Toxicity in BALB/c mouse xenografted with human A549 cells assessed as change in body weight at 10 mg/kg,ip administrated for 15 days; assay type: organism-based; conditions: in vivo, 360 h, time 15 day
A549 [19] = test: Antitumor activity against human A549 cells xenografted in BALB/c mouse assessed as decrease in tumor cell density at 20 mg/kg,ip administrated for 15 days; assay type: functional, organism-based; conditions: time 15.0 day
A549 [20] = test: Antitumor activity against human A549 cells xenografted in BALB/c mouse assessed as appearance of pyknosis at 20 mg/kg,ip administrated for 15 days; assay type: functional, organism-based; conditions: time 15.0 day
A549 [21] = test: Antitumor activity against human A549 cells xenografted in BALB/c mouse assessed as chromatin condensation at 10 mg/kg,ip administrated for 15 days; assay type: functional, organism-based; conditions: time 15.0 day
A549 [22] = test: Antitumor activity against human A549 cells xenografted in BALB/c mouse assessed as appearance of pyknosis at 10 mg/kg,ip administrated for 15 days; assay type: functional, organism-based; conditions: time 15.0 day
A549 [23] = test: Induction of apoptosis in human A549 cells assessed as downregulation of mTOR phosphorylation incubated for 72 hrs by Western blotting assay; assay type: functional, cell-based
[24] = target: T3, Amine oxidase [flavin-containing] A (Homo sapiens, UniProt P21397)
T3 sequence (P21397 whole entry): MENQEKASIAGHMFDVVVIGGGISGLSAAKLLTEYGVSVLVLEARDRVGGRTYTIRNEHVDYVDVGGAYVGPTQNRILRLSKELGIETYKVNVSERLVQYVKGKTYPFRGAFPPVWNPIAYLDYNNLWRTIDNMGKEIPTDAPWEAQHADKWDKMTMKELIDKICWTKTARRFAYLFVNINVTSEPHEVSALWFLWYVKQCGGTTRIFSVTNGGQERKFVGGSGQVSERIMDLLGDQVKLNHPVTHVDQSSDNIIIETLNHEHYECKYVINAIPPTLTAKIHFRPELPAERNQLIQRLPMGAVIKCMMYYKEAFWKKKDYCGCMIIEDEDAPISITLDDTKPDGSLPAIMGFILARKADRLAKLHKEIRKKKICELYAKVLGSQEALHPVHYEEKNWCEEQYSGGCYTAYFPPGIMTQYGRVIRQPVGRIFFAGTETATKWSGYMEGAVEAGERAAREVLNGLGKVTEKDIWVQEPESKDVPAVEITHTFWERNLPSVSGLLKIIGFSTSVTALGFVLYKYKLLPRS
Description: Inhibition of recombinant MAO-A (unknown origin) incubated for 60 mins by luminescence based flow cytometry

A549 [25] = test: cells; conditions: Homo sapiens, A549, 72 h
Description: Antiproliferative activity against human A549 cells assessed as inhibition of cell growth incubated for 72 hrs by CCK-8 assay

MCF7 = test: cells; conditions: Homo sapiens, MCF7, 72 h
Description: Antiproliferative activity against human MCF7 cells assessed as inhibition of cell growth incubated for 72 hrs by CCK-8 assay

MGC-803 = test: cells; conditions: Homo sapiens, MGC-803, 72 h
Description: Antiproliferative activity against human MGC-803 cells assessed as inhibition of cell growth incubated for 72 hrs by CCK-8 assay

CYP3A4, sequence (P08684 whole entry): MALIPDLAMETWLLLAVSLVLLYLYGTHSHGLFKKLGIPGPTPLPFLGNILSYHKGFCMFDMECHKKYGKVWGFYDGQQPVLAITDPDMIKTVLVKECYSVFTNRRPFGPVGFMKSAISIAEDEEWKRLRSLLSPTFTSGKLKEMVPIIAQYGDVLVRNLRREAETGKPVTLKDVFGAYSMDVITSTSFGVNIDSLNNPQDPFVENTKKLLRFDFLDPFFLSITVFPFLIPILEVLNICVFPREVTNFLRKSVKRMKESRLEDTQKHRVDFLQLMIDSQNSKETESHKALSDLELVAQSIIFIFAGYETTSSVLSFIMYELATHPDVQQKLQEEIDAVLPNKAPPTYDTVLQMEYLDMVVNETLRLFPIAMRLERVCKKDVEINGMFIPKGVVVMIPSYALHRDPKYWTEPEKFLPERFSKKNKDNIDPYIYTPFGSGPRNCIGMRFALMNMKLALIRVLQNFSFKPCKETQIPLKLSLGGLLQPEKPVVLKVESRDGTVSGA

- IC50 (HeLa): 3.3 µM
- half-life [1]: 2.42 h
- microsomal CLint [2]: 9.6 µL/min/mg
- CLint scaled [3]: 8.6 mL/min/kg
- remaining at 1 h [4]: 79.2%
- remaining at 1 h [5]: 102%
- inhibition at 20 min, 10 µM (CYP1A2): 0%
- inhibition at 20 min, 10 µM (CYP3A4): 56.8%
- Tmax [6]: 4 h
- Cmax [7]: 46.5 ng/mL
- half-life [8]: 6.27 h
- AUC(0-inf) [9]: 362 ng·h/mL
- half-life [10]: 8.78 h
- inhibition [11]: Active
- inhibition [12]: Dose-Dependent Effect
- inhibition [13]: Dose-Dependent Effect
- inhibition [14]: Dose-Dependent Effect
- IC50 [24]: 2.04 µM
- IC50 (A549 [25]): 0.74 µM
- IC50 (MCF7): 3.4 µM
- IC50 (MGC-803): 5.8 µM
Compound: Cc1ccc(-c2cc3c(cc2-c2ccc(C#N)cc2)c(C(=O)N2CCC(N)CC2)cn3S(=O)(=O)c2ccc(F)cc2)cc1
- Activity (A549 [15]): Dose-Dependent Effect
- Activity (A549 [16]): Active
- Activity (A549 [17]): Active
- Activity [18]: Non-Toxic
- Activity (A549 [19]): Active
- Activity (A549 [20]): Active
- Activity (A549 [21]): Active
- Activity (A549 [22]): Active
- Activity (A549 [23]): Active
